Results on 18 molecules are retold here after patent publication US8563550B2, “Imidazolothiadiazoles for use as protein kinase inhibitors” (Centro Nacional de Investigaciones Oncologicas (CNIO), priority 2007, dated 2013).

In one experiment the target is T1, PIM-1 (Homo sapiens, UniProt P11309).
T1 construct: histidine tag (C); made in house
T1 sequence (P11309 whole entry): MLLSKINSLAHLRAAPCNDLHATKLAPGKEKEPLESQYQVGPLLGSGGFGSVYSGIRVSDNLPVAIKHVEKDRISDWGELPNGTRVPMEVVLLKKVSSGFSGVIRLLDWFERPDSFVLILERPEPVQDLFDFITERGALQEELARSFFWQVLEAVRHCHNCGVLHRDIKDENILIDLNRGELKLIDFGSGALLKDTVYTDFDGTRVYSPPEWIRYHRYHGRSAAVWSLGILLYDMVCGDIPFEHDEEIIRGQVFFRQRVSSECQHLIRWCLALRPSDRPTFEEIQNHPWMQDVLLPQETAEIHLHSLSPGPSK
Kind of experiment: PIM-1 biochemical assay (ADP Hunter assay kit). Conditions: compound concentration 10 μM; approximate values. The text has this: The biochemical assay to measure PIM-1 activity relies on the ADP Hunter assay kit (DiscoveRx Corp., Cat. #90-0077), that determines the amount of ADP as direct product of the kinase enzyme activity.
The enzyme has been expressed and purified in-house as a recombinant human protein with a C-terminal histidine tag. The protein is active and stable.
Assay conditions were as indicated by the kit manufacturers with the following adaptations for the kinase activity step: • Kinase assay buffer and assay volume stay as recommended (15 mM HEPES, pH 7.4, 20 mM NaCl, 1 mM EGTA, 0.02% Tween 20, 10 mM MgCl2 and 0.1 mg/ml bovine γ-globulins/75 μl assay volume) • Incubation time and temperature: 60 min at 30° C. • PIM-1 concentration: 50 pg/μl • ATP concentration: 100 μM • PIM-1 substrate peptide: PIMtide (ARKRRRHPSGPPTA) • Peptide concentration: 60 μM • Positive control for kinase activity inhibition: 1-10 μM Staurosporine • DMSO concentration have to stay below 2% during the kinase reaction
Assays were performed in either 96 or 384-well plates. The final outcome of the coupled reactions provided by the kit is the release of the fluorescent product Resorufin and has been measured with a multilabel HTS counter VICTOR V (PerkinElmer) using an excitation filter at 544 nm and an emission filter at 580 nm.
With “4-{2-[(Furan-2-ylmethyl)-amino]-imidazo[2,1-b][1,3,4]thiadiazol-5-yl}-phenol [34(40)]”, the “Percentage Inhibition of PIM-1 at 10 μM” value was 100%.
For `FC(F)(F)Oc1cccc(-c2cnc3sc(NCC4CC4)nn23)c1` [34(39), Cyclopropylmethyl-[5-(3-trifluoromethoxy-phenyl)-imidazo[2,1-b][1,3,4]thia-diazol-2-yl]-amine], the “Percentage Inhibition of PIM-1 at 10 μM” value turned out to be 82%.

Still in this experiment, the particulars now being: compound concentration 10 μM; approximate values; read-out: Percentage Inhibition of PIM-1 at 10 μM.
For `CC(C)CNc1nn2c(-c3cccc(N(C)C)c3)cnc2s1` [34(3), [5-(3-Dimethylamino-phenyl)-imidazo[2,1-b][1,3,4]thiadiazol-2-yl]-isobutyl-amine], the inhibition at 10 µM was found to be 97%.
On to `c1ccc(OCCNc2nn3c(-c4ccc5ccccc5c4)cnc3s2)cc1` [34(4), (5-Naphthalen-2-yl-imidazo[2,1-b][1,3,4]thiadiazol-2-yl)-(2-phenoxy-ethyl)-amine], for which the inhibition at 10 µM was determined as 71%.
In the case of `Clc1cccc(-c2cnc3sc(NCCc4ccccn4)nn23)c1` [34(5), [5-(3-Chloro-phenyl)-imidazo[2,1-b][1,3,4]thiadiazol-2-yl]-(2-pyridin-2-yl-ethyl)-amine], the inhibition at 10 µM worked out at 98%.
Take `COCCNc1nn2c(-c3ccc4ccccc4c3)cnc2s1` [34(8), (2-Methoxy-ethyl)-(5-naphthalen-2-yl-imidazo[2,1-b][1,3,4]thiadiazol-2-yl)-amine]: the inhibition at 10 µM is 98%.
On to `c1ccc2cc(-c3cnc4sc(NCC5CC5)nn34)ccc2c1` [34(10), Cyclopropylmethyl-(5-naphthalen-2-yl-imidazo[2,1-b][1,3,4]thiadiazol-2-yl)-amine], for which the inhibition at 10 µM turned out to be 77%.
On to `COc1ccc(CNc2nn3c(-c4ccc5ccccc5c4)cnc3s2)cc1` [34(12), (4-Methoxy-benzyl)-(5-naphthalen-2-yl-imidazo[2,1-b][1,3,4]thiadiazol-2-yl)-amine], for which the inhibition at 10 µM is 58%.
As to `COCCNc1nn2c(-c3ccc(F)c(Cl)c3)cnc2s1` [34(14), [5-(3-Chloro-4-fluoro-phenyl)-imidazo[2,1-b][1,3,4]thiadiazol-2-yl]-(2-meth-oxyethyl)-amine], the inhibition at 10 µM came out at 96%.
Take `CN(C)c1cccc(-c2cnc3sc(NCC4CCOCC4)nn23)c1` [34(16), [5-(3-Dimethylamino-phenyl)-imidazo[2,1-b][1,3,4]thiadiazol-2-yl]-(tetrahydro-pyran-4-ylmethyl)-amine]: the inhibition at 10 µM is 99%.
`CC(=O)c1cccc(-c2cnc3sc(NCc4cccs4)nn23)c1` [34(22), 1-(3-{2-[(Thiophen-2-ylmethyl)-amino]-imidazo[2,1-b][1,3,4]thiadiazol-5-yl}-phenyl)-ethanone]: the inhibition at 10 µM stood at 82%.
In the case of `COc1ccc(CNc2nn3c(-c4ccc(F)c(Cl)c4)cnc3s2)cc1` [34(33), [5-(3-Chloro-4-fluoro-phenyl)-imidazo[2,1-b][1,3,4]thiadiazol-2-yl]-(4-meth-oxybenzyl)-amine], the inhibition at 10 µM is 84%.
Consider `Fc1ccc(CNc2nn3c(-c4cccnc4)cnc3s2)cc1` [34(57), (4-Fluoro-benzyl)-(5-pyridin-3-yl-imidazo[2,1-b][1,3,4]thiadiazol-2-yl)-amine], for which the inhibition at 10 µM came to 73%.
The same measure, in the same setting: next, `Cc1cc(-c2cnc3sc(NCC4CC4)nn23)cc(C)c1O` [34(58), 4-[2-(Cyclopropylmethyl-amino)-imidazo[2,1-b][1,3,4]thiadiazol-5-yl]-2,6-dimethylphenol]: 97%; `CC(=O)c1cccc(-c2cnc3sc(NCCN4CCOCC4)nn23)c1` [34(65), 1-{3-[2-(2-Morpholin-4-yl-ethylamino)-imidazo[2,1-b][1,3,4]thiadiazol-5-yl]-phenyl}-ethanone]: 77%.
For the molecule `Fc1ccc(-c2cnc3sc(-c4ccccc4)nn23)cc1` [Example 4, 5-(4-Fluorophenyl)-2-phenyl-imidazo[2,1-b][1,3,4]thiadiazole], the inhibition at 10 µM was 83%.
Take `CN(C)c1cccc(-c2cnc3sc(Oc4ccc(F)cc4)nn23)c1` [Example 15, {3-[2-(4-Fluoro-phenoxy)-imidazo[2,1-b][1,3,4]thiadiazol-5-yl]-phenyl}-dimethyl-amine]: the inhibition at 10 µM was determined as 89%.
As to `Oc1ccc(-c2cnc3sc(Nc4ccc(F)cc4)nn23)cc1` [Example 18, 4-[2-(4-Fluoro-phenylamino)-imidazo[2,1-b][1,3,4]thiadiazol-5-yl]-phenol], the inhibition at 10 µM came out at 82%.
